The target of the first test is T1, purified human HDAC6 (Homo sapiens, UniProt Q9UBN7).
T1 construct: purchased BPS Bioscience 5006
T1 sequence (Q9UBN7 1-1215): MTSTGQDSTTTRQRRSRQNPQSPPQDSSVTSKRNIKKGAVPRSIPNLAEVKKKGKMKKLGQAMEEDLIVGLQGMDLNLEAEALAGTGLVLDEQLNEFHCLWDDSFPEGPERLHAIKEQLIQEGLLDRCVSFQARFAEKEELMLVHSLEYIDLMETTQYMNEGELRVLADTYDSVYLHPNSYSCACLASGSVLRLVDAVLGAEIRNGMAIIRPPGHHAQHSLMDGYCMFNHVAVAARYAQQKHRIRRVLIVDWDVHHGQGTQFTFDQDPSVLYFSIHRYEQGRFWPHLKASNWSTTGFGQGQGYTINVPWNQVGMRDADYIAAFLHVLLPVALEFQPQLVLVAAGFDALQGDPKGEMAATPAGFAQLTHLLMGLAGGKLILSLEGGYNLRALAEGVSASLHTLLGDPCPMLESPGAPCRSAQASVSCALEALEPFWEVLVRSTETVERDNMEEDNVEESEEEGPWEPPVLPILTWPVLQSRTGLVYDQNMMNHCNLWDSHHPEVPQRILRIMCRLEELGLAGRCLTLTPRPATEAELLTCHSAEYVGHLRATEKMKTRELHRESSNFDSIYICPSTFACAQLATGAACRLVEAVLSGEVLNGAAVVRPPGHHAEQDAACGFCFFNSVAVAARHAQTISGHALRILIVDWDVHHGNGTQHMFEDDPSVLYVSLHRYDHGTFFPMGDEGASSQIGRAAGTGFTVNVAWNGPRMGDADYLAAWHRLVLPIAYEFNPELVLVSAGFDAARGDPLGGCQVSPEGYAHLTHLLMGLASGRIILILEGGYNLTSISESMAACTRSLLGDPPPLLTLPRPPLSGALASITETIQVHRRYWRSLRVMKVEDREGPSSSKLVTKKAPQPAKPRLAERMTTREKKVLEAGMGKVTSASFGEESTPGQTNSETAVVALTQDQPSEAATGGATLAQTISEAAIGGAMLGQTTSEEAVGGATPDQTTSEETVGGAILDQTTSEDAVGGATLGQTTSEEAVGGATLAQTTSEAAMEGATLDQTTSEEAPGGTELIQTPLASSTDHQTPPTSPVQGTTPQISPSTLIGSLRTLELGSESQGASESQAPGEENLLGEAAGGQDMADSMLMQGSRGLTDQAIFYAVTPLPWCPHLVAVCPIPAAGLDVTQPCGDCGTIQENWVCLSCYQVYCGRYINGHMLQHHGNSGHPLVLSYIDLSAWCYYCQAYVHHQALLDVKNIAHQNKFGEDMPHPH
Briefly: HDAC6 Enzyme Assay. In kind it is biochemical. To be noted: compound concentration 0.37 μM, read-out: Percent Inhibition. Here is the method:
To measure the inhibition of HDAC6 activity, purified human HDAC6 (BPS Bioscience; Cat. No. 5006) is incubated with substrate Ac-Arg-Gly-Lys(Ac)-AMC peptide (Bachem Biosciences; Cat. No. I-1925) for 1 hour at 30° C. in the presence of test compounds or vehicle DMSO control. The reaction is stopped with the HDAC inhibitor trichostatin A (Sigma; Cat. No. T8552) and the amount of Arg-Gly-Lys-AMC generated is quantitated by digestion with trypsin (Sigma; Cat. No. T1426) and subsequent measurement of the amount of AMC released using a fluorescent plate reader (Pherastar; BMG Technologies) set at Ex 340 nm and Em 460 nm. Concentration response curves are generated by calculating the fluorescence increase in test compound-treated samples relative to DMSO-treated controls, and percentage inhibition values at a single concentration or enzyme inhibition (IC50) values are determined from those curves. One skilled in the art will appreciate that the values generated either as percentage inhibition at a single concentration or IC50 values are subject to experimental variation.
As usually defined, the inhibition is the change of the read-out against control, counted positive when it falls. On to `CC(C)c1ccc(-c2cccc(Cn3cnc4ccc(C(=O)NO)cc4c3=O)c2)cc1` [Compound I-32, N-hydroxy-3-[(4′-isopropylbiphenyl-3-yl)methyl]-4-oxo-3,4-dihydroquinazoline-6-carboxamide], for which the inhibition at 0.37 µM was 83.6%.

In the case of `Cc1ccccc1Cc1nc2cc(C(=O)NO)ccc2c(=O)n1Cc1ccc(C(F)(F)F)cc1` [Compound I-35, N-hydroxy-2-(2-methylbenzyl)-4-oxo-3-[4-(trifluoromethyl)benzyl]-3,4-dihydroquinazoline-7-carboxamide], the inhibition at 0.37 µM was 66%.

On to `O=C(NO)c1ccc2ncn(Cc3cccc(-c4cccc(OC(F)(F)F)c4)c3)c(=O)c2c1` [Compound I-37, N-hydroxy-4-oxo-3-{[3′-(trifluoromethoxy)biphenyl-3-yl]methyl}-3,4-dihydroquinazoline-6-carboxamide], for which the inhibition at 0.37 µM was 89.8%.

Turning to `O=C(NO)c1ccc2c(=O)n(Cc3ccc(C(F)(F)F)cc3)c(CCc3ccccc3)nc2c1` [Compound I-39, N-hydroxy-4-oxo-2-(2-phenylethyl)-3-[4-(trifluoromethyl)benzyl]-3,4-dihydroquinazoline-7-carboxamide], the inhibition at 0.37 µM came out at 84.5%.

Regarding `O=C(NO)c1ccc2ncn(CCN3CCCCC3)c(=O)c2c1` [Compound I-41, N-hydroxy-4-oxo-3-(2-piperidin-1-ylethyl)-3,4-dihydroquinazoline-6-carboxamide], the inhibition at 0.37 µM is 73.2%.

For `O=C(NO)c1ccc2ccn(CCN(C(=O)C3CC3)c3cccc(-n4cccn4)c3)c(=O)c2c1` [Compound I-45, 2-(2-{(cyclopropylcarbonyl)[3-(1H-pyrazol-1-yl)phenyl]amino}ethyl)-N-hydroxy-1-oxo-1,2-dihydroisoquinoline-7-carboxamide], the inhibition at 0.37 µM stood at 89.6%.

For the molecule `O=C(NO)c1ccc2ncn(Cc3cccc(-c4cccc(C(F)(F)F)c4)c3)c(=O)c2c1` [Compound I-46, N-hydroxy-4-oxo-3-{[3′-(trifluoromethyl)biphenyl-3-yl]methyl}-3,4-dihydroquinazoline-6-carboxamide], the inhibition at 0.37 µM came out at 94.4%.

On to `O=C(NO)c1ccc2c(=O)n(Cc3ccc(C(F)(F)F)cc3)c(CC3CCCCC3)nc2c1` [Compound I-53, 2-(cyclohexylmethyl)-N-hydroxy-4-oxo-3-[4-(trifluoromethyl)benzyl]-3,4-dihydroquinazoline-7-carboxamide], for which the inhibition at 0.37 µM stood at 65.5%.

Still in this test, the particulars now being: compound concentration 0.412 μM, read-out: Percent Inhibition.
Regarding `Cc1ccccc1OCc1nc2cc(C(=O)NO)ccc2c(=O)[nH]1` [Compound I-29, N-hydroxy-2-[(2-methylphenoxy)methyl]-4-oxo-3,4-dihydroquinazoline-7-carboxamide], the inhibition at 0.412 µM was determined as 78.9%.

As for `O=C(NO)c1ccc2ncn(Cc3ccc(C(F)(F)F)cc3)c(=O)c2c1` [Compound I-30, N-hydroxy-4-oxo-3-[4-(trifluoromethyl)benzyl]-3,4-dihydroquinazoline-6-carboxamide], the inhibition at 0.412 µM was determined as 93.6%.

As to `O=C(NO)c1ccc2ccn(Cc3cccc(OCc4ccccc4)c3)c(=O)c2c1` [Compound I-31, 2-[3-(benzyloxy)benzyl]-N-hydroxy-1-oxo-1,2-dihydroisoquinoline-7-carboxamide], the inhibition at 0.412 µM was 89.5%.

In the case of `Cc1cc(C)cc(Cn2ccc3ccc(C(=O)NO)cc3c2=O)c1` [Compound I-33, 2-(3,5-dimethylbenzyl)-N-hydroxy-1-oxo-1,2-dihydroisoquinoline-7-carboxamide], the inhibition at 0.412 µM stood at 94.4%.

Take `COc1ccc(NCCCn2ccc3ccc(C(=O)NO)cc3c2=O)cc1` [Compound I-34, N-hydroxy-2-{3-[(4-methoxyphenyl)amino]propyl}-1-oxo-1,2-dihydroisoquinoline-7-carboxamide]: the inhibition at 0.412 µM stood at 94.3%.

On to `O=C(NO)c1ccc2ncn(Cc3ccccc3C(F)(F)F)c(=O)c2c1` [Compound I-36, N-hydroxy-4-oxo-3-[2-(trifluoromethyl)benzyl]-3,4-dihydroquinazoline-6-carboxamide], for which the inhibition at 0.412 µM worked out at 91.8%.

As for `Cc1ccccc1OCCCn1ccc2ccc(C(=O)NO)cc2c1=O` [Compound I-38, N-hydroxy-2-[3-(2-methylphenoxy)propyl]-1-oxo-1,2-dihydroisoquinoline-7-carboxamide], the inhibition at 0.412 µM came to 96.1%.

With `CC(C)Nc1nc2cc(C(=O)NO)ccc2c(=O)n1-c1ccc(Cl)cc1` [Compound I-40, 3-(4-chlorophenyl)-N-hydroxy-2-(isopropylamino)-4-oxo-3,4-dihydroquinazoline-7-carboxamide], the inhibition at 0.412 µM came out at 44.5%.

As to `O=C(NO)c1ccc2ccn(CCCOc3ccc4c(c3)CCC4)c(=O)c2c1` [Compound I-42, 2-[3-(2,3-dihydro-1H-inden-5-yloxy)propyl]-N-hydroxy-1-oxo-1,2-dihydroisoquinoline-7-carboxamide], the inhibition at 0.412 µM was 94.4%.

Turning to `O=C(NO)c1ccc2c(=O)n(Cc3cccc(Cl)c3)cnc2c1` [Compound I-43, 3-(3-chlorobenzyl)-N-hydroxy-4-oxo-3,4-dihydroquinazoline-7-carboxamide], the inhibition at 0.412 µM was determined as 96.1%.

As for `CCCC(C)n1ccc2ccc(C(=O)NO)cc2c1=O` (stereo not drawn) [Compound I-44, N-hydroxy-2-(1-methylbutyl)-1-oxo-1,2-dihydroisoquinoline-7-carboxamide], the inhibition at 0.412 µM is 91.8%.

For the molecule `Cn1c(NCc2ccncc2)nc2cc(C(=O)NO)ccc2c1=O` [Compound I-47, N-hydroxy-3-methyl-4-oxo-2-[(pyridin-4-ylmethyl)amino]-3,4-dihydroquinazoline-7-carboxamide], the inhibition at 0.412 µM was found to be 44.2%.

For the molecule `COc1ccccc1OCCn1ccc2ccc(C(=O)NO)cc2c1=O` [Compound I-48, N-hydroxy-2-[2-(2-methoxyphenoxy)ethyl]-1-oxo-1,2-dihydroisoquinoline-7-carboxamide], the inhibition at 0.412 µM was 97%.

With `COc1ccc(Nc2nc3cc(C(=O)NO)ccc3c(=O)n2C)cc1` [Compound I-49, N-hydroxy-2-[(4-methoxyphenyl)amino]-3-methyl-4-oxo-3,4-dihydroquinazoline-7-carboxamide], the inhibition at 0.412 µM was 55%.

Turning to `O=C(NO)c1ccc2ccn(Cc3ccc(F)cc3Cl)c(=O)c2c1` [Compound I-50, 2-(2-chloro-4-fluorobenzyl)-N-hydroxy-1-oxo-1,2-dihydroisoquinoline-7-carboxamide], the inhibition at 0.412 µM is 94.9%.

For the molecule `CS(=O)(=O)c1ccccc1OCCCn1ccc2ccc(C(=O)NO)cc2c1=O` [Compound I-51, N-hydroxy-2-{3-[2-(methylsulfonyl)phenoxy]propyl}-1-oxo-1,2-dihydroisoquinoline-7-carboxamide], the inhibition at 0.412 µM was determined as 96.2%.

`O=C(NO)c1ccc2ccn(CCCOc3ccccc3C(F)(F)F)c(=O)c2c1` [Compound I-52, N-hydroxy-1-oxo-2-{3-[2-(trifluoromethyl)phenoxy]propyl}-1,2-dihydroisoquinoline-7-carboxamide]: the inhibition at 0.412 µM was 90%.

In the case of `Cc1ccc(Cn2ccc3ccc(C(=O)NO)cc3c2=O)cc1F` [Compound I-54, 2-(3-fluoro-4-methylbenzyl)-N-hydroxy-1-oxo-1,2-dihydroisoquinoline-7-carboxamide], the inhibition at 0.412 µM came out at 94.5%.

`O=C(NO)c1ccc2ncn(Cc3cccc(OC(F)(F)F)c3)c(=O)c2c1` [Compound I-55, N-hydroxy-4-oxo-3-[3-(trifluoromethoxy)benzyl]-3,4-dihydroquinazoline-6-carboxamide]: the inhibition at 0.412 µM is 93.9%.
